Results reported in ChEMBL document CHEMBL3108686, “Cytotoxic dammarane-type triterpenoids from the stem bark of Dysoxylum binecteriferum” (J Nat Prod, 2014).
pIC50: −log10 of the molar value.

How the values were obtained:
A549 = experiment: cells; conditions: Homo sapiens, A549, 48 h
Description: Cytotoxicity against human A549 cells assessed as cell viability after 48 hrs by MTT assay

RAW264.7 = experiment: Antiinflammatory activity in mouse RAW264.7 cells assessed as inhibition of LPS-stimulated nitric oxide production after 24 hrs by Griess assay; type: functional, cell-based; conditions: RAW264.7, 24 h
MCF7 = experiment: Cytotoxicity against human MCF7 cells assessed as cell viability after 48 hrs by MTT assay; type: functional, cell-based; conditions: MCF7, 48 h
HepG2 = experiment: Cytotoxicity against human HepG2 cells assessed as cell viability after 48 hrs by MTT assay; type: functional, cell-based; conditions: HepG2, 48 h

Row | SMILES | pIC50 (A549) | pIC50 (RAW264.7) | pIC50 (MCF7) | pIC50 (HepG2)
1 | CC(C)(O)[C@H]1CC[C@@](C)([C@H]2CC[C@]3(C)[C@@H]2CC[C@@H]2[C@@]4(C)CC[C@@H](O)[C@@](C)(CO)[C@@H]4CC[C@]23C)O1 | < 4.30 | < 4.00 | 4.64 | < 4.30
2 | C=C(CO)[C@@H]1CC[C@]2(C)[C@H](CC[C@@H]3[C@@H]([C@]4(C)CC[C@@H](C(C)(C)O)O4)CC[C@]32C)[C@@]1(C)CCC(=O)OC | < 4.30 | < 4.00 | < 4.30 | 4.55
3 | C=C(C)[C@@H]1CC[C@]2(C)[C@H](CC[C@@H]3[C@@H]([C@]4(C)CC[C@H](C(C)(C)O)O4)CC[C@]32C)[C@@]1(C)CCC(=O)OC [METHYL SHOREATE] | 4.89 | < 4.00 | 5.25 | 5.20
4 | CC1(C)[C@H](O)CC[C@]2(C)[C@H]3CC[C@@H]4[C@@H]([C@]5(C)CCC(=O)O5)CC[C@@]4(C)[C@]3(C)CC[C@@H]12 [CABRALEAHYDROXYLACTONE] | < 4.30 | < 4.00 | < 4.30 | < 4.30
5 | C=C(CC[C@H](O)C(C)(C)O)[C@H]1CC[C@]2(C)[C@@H]1CC[C@@H]1[C@@]3(C)CC[C@@H](O)C(C)(C)[C@@H]3CC[C@]12C | 4.46 | < 4.00 | 4.78 | 5.23
6 | CC(C)(O)[C@@H]1CC[C@@](C)([C@H]2CC[C@]3(C)[C@@H]2CC[C@@H]2[C@@]4(C)CCC(=O)[C@](C)(CO)[C@@H]4CC[C@]23C)O1 | < 4.30 | < 4.00 | < 4.30 | < 4.30
7 | CC(C)(O)[C@H]1CC[C@@](C)([C@H]2CC[C@]3(C)[C@@H]2CC[C@@H]2[C@@]4(C)CCC(=O)[C@@](C)(CO)[C@@H]4CC[C@]23C)O1 | < 4.30 | < 4.00 | < 4.30 | < 4.30
8 | C=C(C)[C@@H]1CC[C@]2(C)[C@H](CC[C@@H]3[C@@H]([C@]4(C)CC[C@H](O)C(C)(C)O4)CC[C@]32C)[C@@]1(C)CCC(=O)OC | < 4.30 | < 4.00 | < 4.30 | < 4.30
9 | CCOC(=O)CC[C@@]1(C)[C@H]([C@@](C)(O)CO)CC[C@]2(C)[C@@H]1CC[C@@H]1[C@@H]([C@]3(C)CC[C@@H](C(C)(C)O)O3)CC[C@]12C | < 4.30 | < 4.00 | < 4.30 | < 4.30
10 | C=C(C)[C@@H]1CC[C@]2(C)[C@H](CC[C@@H]3[C@@H]([C@]4(C)CC[C@@H](C(C)(C)O)O4)CC[C@]32C)[C@@]1(C)CCC(=O)OC | < 4.30 | < 4.00 | < 4.30 | < 4.30
11 | C=C(C)[C@@H]1CC[C@]2(C)[C@H](CC[C@@H]3[C@@H]([C@]4(C)CCC(=O)O4)CC[C@]32C)[C@@]1(C)CCC(=O)OCC | < 4.30 | < 4.00 | < 4.30 | 4.42
12 | CCOC(=O)CC[C@@]1(C)[C@H]([C@](C)(O)CO)CC[C@]2(C)[C@@H]1CC[C@@H]1[C@@H]([C@]3(C)CC[C@H](C(C)(C)O)O3)CC[C@]12C | < 4.30 | < 4.00 | < 4.30 | < 4.30
13 | C=C(C)[C@@H]1CC[C@]2(C)[C@H](CC[C@@H]3[C@@H]([C@]4(C)CCC(=O)O4)CC[C@]32C)[C@@]1(C)CCC(=O)O | < 4.30 | < 4.00 | < 4.30 | < 4.30
14 | C=C(C)[C@@H]1CC[C@]2(C)[C@H](CC[C@@H]3[C@@H]([C@]4(C)CCC(=O)O4)CC[C@]32C)[C@@]1(C)CCC(=O)OC | < 4.30 | 4.50 | < 4.30 | < 4.30
15 | CCOC(=O)CC[C@@]1(C)[C@H]([C@](C)(O)CO)CC[C@]2(C)[C@@H]1CC[C@@H]1[C@@H]([C@]3(C)CC[C@@H](C(C)(C)O)O3)CC[C@]12C | < 4.30 | < 4.00 | < 4.30 | < 4.30
16 | CC1(C)[C@H](O)CC[C@]2(C)[C@H]3CC[C@@H]4[C@@H]([C@]5(C)C=CC(=O)O5)CC[C@@]4(C)[C@]3(C)CC[C@@H]12 | < 4.30 | < 4.00 | < 4.30 | < 4.30
17 | CC(C)(O)[C@@H]1CC[C@@](C)([C@H]2CC[C@]3(C)[C@@H]2CC[C@@H]2[C@@]4(C)CC[C@@H](O)C(C)(C)[C@@H]4CC[C@]23C)O1 | < 4.30 | < 4.00 | < 4.30 | < 4.30
18 | CC(C)(O)[C@@H]1CC[C@@](C)([C@H]2CC[C@]3(C)[C@@H]2CC[C@@H]2[C@@]4(C)CC[C@@H](O)[C@@](C)(CO)[C@@H]4CC[C@]23C)O1 | < 4.30 | 4.19 | 4.52 | 4.69
19 | CC1(C)C(=O)CC[C@]2(C)[C@H]3CC[C@@H]4[C@@H]([C@]5(C)C[C@H](O)C(=O)O5)CC[C@@]4(C)[C@]3(C)CC[C@@H]12 | 4.91 | < 4.00 | 4.57 | 5.10
20 | CC(C)(O)[C@@H]1CC[C@@](C)([C@H]2CC[C@]3(C)[C@@H]2CC[C@@H]2[C@@]4(C)CCC(=O)[C@@](C)(CO)[C@@H]4CC[C@]23C)O1 | 4.55 | < 4.00 | 4.74 | 5.19
21 | C=C(C)[C@@H]1CC[C@]2(C)[C@H](CC[C@@H]3[C@@H]([C@]4(C)CC[C@H](C(C)(C)O)O4)CC[C@]32C)[C@@]1(C)CCC(=O)OCC | 4.89 | < 4.00 | 4.74 | 4.83
22 | CC(C)(O)[C@H]1CC[C@@](C)([C@H]2CC[C@]3(C)[C@@H]2CC[C@@H]2[C@@]4(C)CC[C@@H](O)C(C)(C)[C@@H]4CC[C@]23C)O1 | < 4.30 | < 4.00 | < 4.30 | < 4.30
23 | CCOC(=O)CC[C@@]1(C)[C@H]([C@@](C)(O)CO)CC[C@]2(C)[C@@H]1CC[C@@H]1[C@@H]([C@]3(C)CC[C@H](C(C)(C)O)O3)CC[C@]12C | < 4.30 | 4.24 | < 4.30 | < 4.30
24 | CC(C)(O)[C@@H]1CC[C@@](C)([C@H]2CC[C@]3(C)[C@@H]2CC[C@@H]2[C@@]4(C)CCC(=O)C(C)(C)[C@@H]4C[C@H](O)[C@]23C)O1 | < 4.30 | < 4.00 | < 4.30 | < 4.30
25 | CC1(C)C(=O)CC[C@]2(C)[C@H]3CC[C@@H]4[C@@H]([C@]5(C)CCC(=O)O5)CC[C@@]4(C)[C@]3(C)CC[C@@H]12 [CABRALELACTONE] | < 4.30 | < 4.00 | < 4.30 | < 4.30
